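The compound was tested at five concentrations on cells cultured in 96-well plates, with a 48-hour exposure period. TGI: concentration producing complete growth inhibition.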
Legend:
Test in all cases: growth of human tumour cells (NCI), 48 h
UO-31 renal = test system: UO-31 renal
NCI/ADR-RES ovarian = test system: NCI/ADR-RES ovarian
HCT-15 colon = test system: HCT-15 colon
NCI-H522 lung = test system: NCI-H522 lung
RXF 393 renal = test system: RXF 393 renal
786-0 renal = test system: 786-0 renal
MDA-MB-231 breast = test system: MDA-MB-231 breast
LOX IMVI melanoma = test system: LOX IMVI melanoma
T-47D breast = test system: T-47D breast
KM12 colon = test system: KM12 colon
OVCAR-3 ovarian = test system: OVCAR-3 ovarian

Compound | TGI (UO-31 renal) | TGI (NCI/ADR-RES ovarian) | TGI (HCT-15 colon) | TGI (NCI-H522 lung) | TGI (RXF 393 renal) | TGI (786-0 renal) | TGI (MDA-MB-231 breast) | TGI (LOX IMVI melanoma) | TGI (T-47D breast) | TGI (KM12 colon) | TGI (OVCAR-3 ovarian)
N#C/C(=C\c1cccc(Br)c1)c1nc2ccccc2c(=O)[nH]1 | > 100 µM | > 100 µM | > 100 µM | > 100 µM | > 100 µM | > 100 µM | > 100 µM | > 100 µM | > 100 µM | > 100 µM | 
C=C1CC(COc2ccc3c(C)c(C)c(=O)oc3c2C)(c2ccccc2)OC1=O (centres undefined) | 7 µM | 8.24 µM | 3.84 µM | 4.16 µM |  | 2.78 µM | 7.86 µM | 2.85 µM | 4.96 µM | 9.35 µM | 9.66 µM
CN(C)CCCNc1cc(O)c2c(c1O)C(=O)c1ccccc1C2=O | 11.9 µM | 15.5 µM | 21 µM | 40.7 µM | 17 µM | 21 µM | 27.6 µM | 24.8 µM | 36.5 µM | 21.7 µM | 23.5 µM
Clc1ccc(OCc2nnc(COc3ccc(OCc4nnc(COc5ccc(Cl)cc5Cl)o4)c(Cl)c3)o2)c(Cl)c1 | 36.7 µM | 66.7 µM | > 100 µM | 38 µM | 59.6 µM | > 100 µM | 63.1 µM | 33.4 µM | > 100 µM | > 100 µM | 61.7 µM
CC1(C)N=C(N)N=C(N)N1c1cccc(OCc2cccc(N)c2)c1 | > 100 µM | > 100 µM | > 100 µM | > 100 µM | > 100 µM | > 100 µM | > 100 µM | > 100 µM | > 100 µM | > 100 µM | > 100 µM
O=c1c(-c2ccccc2)c(SCCN2CCCCCC2)n(-c2ccccc2)c(=S)n1-c1ccccc1 |  | > 100 µM | > 100 µM | > 100 µM | 98.6 µM |  |  | > 100 µM |  | > 100 µM | > 100 µM
CCCO/N=[N+](\[O-])N(CC)CC | > 100 µM |  | > 100 µM | > 100 µM | > 100 µM |  |  | > 100 µM |  | > 100 µM | > 100 µM
COCC#C[C@@]1(O)CCCCC1CC(OC)OC (some centres undefined) | > 100 µM | > 100 µM | > 100 µM | 82.5 µM | > 100 µM | > 100 µM | > 100 µM | > 100 µM | > 100 µM | > 100 µM | 
CC(=O)C1(O)CCC2(O)C3(O)CC=C4CC(O)CCC4(C)C3CC(OC(=O)c3ccc(O)cc3)C12C (centres undefined) | > 100 µM | > 100 µM | > 100 µM | > 100 µM |  | > 100 µM | > 100 µM | > 100 µM | > 100 µM | > 100 µM | > 100 µM
O=C1c2cccnc2S(=O)(=O)N1c1ccc([N+](=O)[O-])cc1 | > 100 µM | > 100 µM | > 100 µM | > 100 µM |  | > 100 µM | > 100 µM | > 100 µM | > 100 µM | > 100 µM | > 100 µM
Cc1cn(CCCCCOC(=O)NC(CCCNC(N)=O)C(=O)O)c(=O)[nH]c1=O (centres undefined) | > 100 µM | > 100 µM | > 100 µM |  | > 100 µM | > 100 µM | > 100 µM | > 100 µM | > 100 µM | > 100 µM | > 100 µM
CCC(=O)Nc1ccc(NS(=O)(=O)c2ccc(Cl)cc2)cc1 | > 100 µM | > 100 µM | > 100 µM | > 100 µM | > 100 µM | > 100 µM |  | > 100 µM | > 100 µM | > 100 µM | > 100 µM
C=C(C)[C@H]1CC(=O)/C(C)=C\CC/C(C)=C/CC[C@@]2(C)O[C@@H]2C1 | 48.4 µM | 56 µM | > 100 µM |  |  | > 100 µM | > 100 µM | 32.2 µM |  | 44.3 µM | 43.9 µM
CC(C)=CCC12Cc3ccc(O)cc3C(C(C)CN1)C2C (centres undefined) | > 100 µM | > 100 µM | > 100 µM |  | > 100 µM | > 100 µM | > 100 µM | > 100 µM | > 100 µM | > 100 µM | 
CCOc1snc(C(Cl)(Cl)Cl)c1Cl | 45.5 µM |  | > 100 µM |  | 27.6 µM | > 100 µM | > 100 µM | 42.8 µM |  | 56.7 µM | 37.8 µM
NCCN(CCN(C(=O)Nc1ccccc1)c1ccccc1)C(=O)Nc1ccccc1 | 39.3 µM | > 100 µM | 76.4 µM | 41.1 µM | 34.5 µM | 55.4 µM | > 100 µM | 47.6 µM | 90.8 µM |  | 
Cc1ccc(C(=O)Cc2nc3c([nH]c2=O)c(C)nn3-c2ccccc2)c(C)c1 |  | > 10 µM | > 10 µM | > 10 µM |  | > 10 µM | > 10 µM | > 10 µM | > 10 µM | > 10 µM | 8.94 µM
COC(=O)C1=C(C(=O)OC)SC(=C2SC3=C(SC(=C4SCCS4)S3)S2)S1 | > 100 µM | > 100 µM |  | > 100 µM | > 100 µM | > 100 µM | > 100 µM | > 100 µM | > 100 µM | > 100 µM | 
O=C1N/N=C\c2ccc(cc2)OCc2cccc(n2)COc2ccc(cc2)/C=N\NC1=O | > 25 µM | > 25 µM | > 25 µM | > 25 µM | > 25 µM | > 25 µM | > 25 µM |  |  | > 25 µM | > 25 µM
COc1ccc(C2=C(Cl)C(=O)O/C2=C\c2ccc(OC)c(Br)c2)cc1Cl | > 100 µM | 88.6 µM | > 100 µM | 57.5 µM | 46.3 µM | 39.1 µM |  | > 100 µM | > 100 µM | > 100 µM | 47 µM
CC(=O)OC1CC2(O)C(CCC3(C)C(c4ccc(=O)oc4)CCC32O)C2(C)C1=CC(O)C1OC12 (centres undefined) | 0.323 µM | 0.284 µM | 0.32 µM | 0.0784 µM | 0.0324 µM |  |  | 1.02 µM |  | 0.301 µM | 0.0697 µM
C[C@H](c1ccccc1)N1C(=O)[C@@H](OCc2ccccc2)[C@H]1[C@H](COC(=O)COCc1ccccc1)OCc1ccccc1 | > 100 µM |  | > 100 µM | > 100 µM |  | > 100 µM | > 100 µM | > 100 µM |  | > 100 µM | > 100 µM

Source: PubChem BioAssay (NCI)
